Measured values as given in patent US8580920B2, “Peptides useful for skin lightening” (Conopco, Inc., priority 2009, dated 2013).
Like-named read-outs stand apart in the source and are kept apart here. Bridges are numbered along the chain shown (N, C = ends).

System: human epidermal keratinocytes neonatal (HeKn) and human epidermal melanocytes neonatal darkly pigmented (HeMnDP) co-culture
Details: 72 hours, with respect to untreated control
Procedure: The ability of various materials to act as skin lightening agents was measured using the melanin content assay. The experiments were carried out as per the following procedure:
A 2:1 ratio mix containing 100 000 human epidermal keratinocytes neonatal (HeKn) (neonatal foreskin keratinocytes from Cascade Biologicals) and 50 000 human epidermal melanocytes neonatal darkly pigmented (HeMnDP) (darkly pigmenting cells neonatal foreskin melanocytes from Cascade Biologicals) were seeded per well, in a 24 well cell culture plate, to establish a co-culture system. After overnight incubation, cells were treated with fresh media containing the test actives (untreated or vehicle controls set up in parallel) and incubated for 72 hours after treatment. Then media was removed and replaced with 80 μl of dimethyl sulphoxide (DMSO). The plate was further incubated with DMSO for 1 hour at 65° C., after which the well contents were triturated and the same sample used to assay both for melanin content (read at 450 nm in a plate reader) and protein estimation (regular BiCinchoninic Acid method, kit from Peirce). % reduction in melanin was with respect to untreated control.

“-Gly-Cys-His-Gly-His-Pro-Phe-Ala-Pro-Cys-Ala- [Peptide 2] (H-GCHGHPFAPCA-OH; disulfide 2-10; N-terminus and C-terminus assumed; SMILES C[C@H](NC(=O)[C@@H]1CSSC[C@H](NC(=O)CN)C(=O)N[C@@H](Cc2c[nH]cn2)C(=O)NCC(=O)N[C@@H](Cc2c[nH]cn2)C(=O)N2CCC[C@H]2C(=O)N[C@@H](Cc2ccccc2)C(=O)N[C@@H](C)C(=O)N2CCC[C@H]2C(=O)N1)C(=O)O)” was tested, and the “% REDUCTION IN MELANIN CONTENT” value (46 μM) was 12 (±10) %.
`O=c1cc(CO)occ1O` [Kojic acid, reference compound] was tested, and the “% REDUCTION IN MELANIN CONTENT” value (100 μM) was 19 (±1) %.
“-Gly-Cys-Leu-Ser-Arg-His-Val-Leu-Gln-Cys-Ala- [Peptide 1]” was tested, and the “% REDUCTION IN MELANIN CONTENT” value (42 μM) was 5 (±2) % and the “% REDUCTION IN MELANIN CONTENT” value (420 μM) was 22 (±3) %.
